Non-standard residues stand in square brackets, D forms with d. Residues, ends and D or L forms follow the SMILES beside them.
Columns and labels:
[1] = test system: IL-1 stimulation of IL-8 in human skin fibroblasts; assay: Inhibition of IL-1 induced IL-8 in human fibroblasts; assay type: cell-based; settings: inhibition of IL-1 stimulation of IL-8 in human skin fibroblasts; average of three measurements and standard error; read-out: Binding (IC50 nM)
[2] = test system: cancer patients with cachexia; assay: Treatment of cachexia in cancer patients (case reports); assay type: in vivo, human
Procedure: Patients are typically diagnosed as having cachexia where weight loss of at least 5% in 12 months or less (or BMI<20 kg/m^2), is accompanied by at least three of the following conditions: • Decreased muscle strength • Fatigue • Low fat-free mass index; and • Abnormal blood biochemistry: increased inflammatory markers (CRP, IL-6), anaemia (Hb<12 g/dL) and low serum albumin (<3.2 g/dL)
The peptide was administered by subcutaneous injection every second day for two weeks, in a composition containing the peptide dissolved in 5 ml of a solution comprising water, bicarbonate and either benzyl alcohol or methanol.
The peptide was administered by subcutaneous injection every second day for one month, in a composition containing the peptide dissolved in 5 ml of a solution comprising water, bicarbonate and either benzyl alcohol or methanol
The peptide was administered by subcutaneous injection every second day, in a composition containing the peptide dissolved in 5 ml of a solution comprising water, bicarbonate and either benzyl alcohol or methanol.
The peptide was administered by subcutaneous injection every second day for two months, in a composition containing the peptide dissolved in 5 ml of a solution comprising water, bicarbonate and either benzyl alcohol or methanol.
The peptide was administered by subcutaneous injection every second day for one week, in a composition containing the peptide dissolved in 5 ml of a solution comprising water, bicarbonate and either benzyl alcohol or methanol.
The peptide was administered by subcutaneous injection every second day for one month, in a composition containing the peptide dissolved in 5 ml of a solution comprising water, bicarbonate and either benzyl alcohol or methanol.
The peptide was administered by subcutaneous injection every second day for one month in a composition containing the peptide dissolved in 5 ml of a solution comprising water, bicarbonate and either benzyl alcohol or methanol.

[3] = Human plasma stability trials; assay type: in vitro ADME; settings: 37° C., 12 hours, read-out: ½ Life human plasma
Procedure: 1 mg of each peptide was added to the plasma and the solution was gently agitated for 2 minutes at room temperature before standing at 37° C. for a period of 12 hours.

[4] = test system: IL-1α-induced IL-8 production by HT-29 cells; assay: IL-1α induced IL-8 production by HT-29 colonic epithelial cells; assay type: cell-based, human; settings: 10 ng/ml IL-1α
Procedure: Human colon epithelial cell lines HT-29 and Caco2 obtained from the European Collection of Animal Cell Cultures (ECACC) were used in cell cultures. Cells were routinely cultured at 37° C. in an atmosphere of 5% CO2 in 80 cm^2 tissue culture flasks in McCoy's and DMEM medium, respectively, supplemented with penicillin (10 u/ml), streptomycin (10 μg/ml), fungizone (0.5 μg/ml), and 10% (v/v) FCS (referred to as complete medium) until confluent.
Confluent monolayers were sub-cultured into 6-well plates for experimental protocols. Cells were grown in 6-well plates until confluent. Twenty-four hours prior to the experiment the confluent monolayers were washed and cultured in FCS-free McCoy's medium. Growth arrested cultures were then treated with fresh FCS-free medium and stimulated with vehicle controls or various doses of IL-1α added alone or in combination with other pro-inflammatory cytokines (TNF-α, IFN-γ) in the presence or absence of the peptide of sequence 4 or IL-1 ra, in a dose and time dependent manner.
Supernatants were collected, centrifuged to remove cellular debris and stored at −70° C. until assayed for extracellular inflammatory mediators. Total RNA for RT-PCR was extracted as described above. Cell counting and viability was routinely checked at the beginning and the end of the experiment by phase microscopy and by trypan blue exclusion using representative wells. Mycoplasma tests were performed during the experimental protocol. Production of soluble mediators was assessed by commercially available ELISA in supernatants, RT-PCR in total RNA extractants and nitric oxide, as described in Kolios, G, et al. (1995). Br J Pharmacol, 116, 2866-2872, the contents of which are incorporated herein by reference.
HT 29 and Caco2 colonic epithelial cell lines were stimulated with 10 ng/ml of IL-la in the presence of 100 or 500 ng/ml of the peptide of sequence 4.

[5] = test system: horses; assay: Equine case studies (inflammatory conditions); assay type: in vivo, horse
Procedure: In these case studies, 13 different horses each suffering from different inflammatory conditions were treated with peptide 4, which was administered by injection in a composition containing the peptide dissolved in 5 ml of a solution comprising water, bicarbonate and either benzyl alcohol or methanol.

[6] = Example 16: breast cancer, 1 mg subcutaneous every second day for one month

CC(=O)N[C@H](CC(C)C)C(=O)N1CCC[C@@H]1C(=O)N[C@H](CC(C)C)C(=O)N[C@H](C)C(=O)N[C@H](Cc1ccc(O)cc1)C(=O)N1CCC[C@@H]1C(=O)N[C@H](CCC(N)=O)C(=O)N[C@H](Cc1c[nH]c2ccccc12)C(=O)N[C@H](Cc1ccc(O)cc1)C(=O)NCC(=O)N1CCC[C@@H]1C(=O)N[C@@H](C(=O)N[C@H](Cc1c[nH]c2ccccc12)C(=O)N[C@H](CCC(=O)O)C(=O)N[C@H](Cc1ccccc1)C(=O)O)[C@H](C)O [SEQ ID NO. 4, Ac-LPLAYPQWYGPTWEF] (Ac-[dL][dP][dL][dA][dY][dP][dQ][dW][dY]G[dP][dT][dW][dE][dF]-OH; C-terminus assumed)
IC50 [1]: 5.9 nM
Side effects due to the administration of the peptide ([2]; Example 9: breast cancer, 1 mg subcutaneous every second day for two weeks): No side effects were noted
Symptoms of cachexia ([2]; Example 9: breast cancer, 1 mg subcutaneous every second day for two weeks, after 24 hours): cachexia symptoms were alleviated
Symptoms of cachexia ([2]; Example 10: adrenal adenomas, 1 mg subcutaneous every second day for one month): symptoms of cachexia were alleviated
Symptoms of cachexia ([2]; Example 11: glioblastoma, 1 mg subcutaneous every second day): symptoms of cachexia were alleviated
Symptoms of cachexia ([2]; Example 12: brain adenoma, 1 mg subcutaneous every second day for two months, two days after commencement): symptoms of cachexia were alleviated
Symptoms of cachexia ([2]; Example 13: brain glioma, 1 mg subcutaneous every second day for one week): symptoms of cachexia were alleviated
Symptoms of cachexia ([2]; Example 14: ovarian cancer, 1 mg subcutaneous every second day for one month): symptoms of cachexia were also alleviated
Symptoms of cachexia ([2]; Example 15: bone cancer, 1 mg subcutaneous every second day for one month): symptoms of cachexia were alleviated
Symptoms of cachexia [2, 6]: symptoms of cachexia were also alleviated
Weight put on [2, 6]: 5 kg
Symptoms of cachexia ([2]; Example 17: breast cancer, 1 mg subcutaneous every second day for two weeks): symptoms of cachexia were alleviated
Symptoms of cachexia ([2]; Example 18: bladder cancer, 1 mg subcutaneous every second day for one month, after 24 from commencement): symptoms of cachexia were alleviated
Symptoms of cachexia ([2]; Example 19: colon cancer, 1 mg subcutaneous every second day for one month): symptoms of cachexia were largely alleviated
Symptoms of cachexia ([2]; Example 20: colon cancer, 1 mg subcutaneous every second day for one month, one month after commencement): symptoms of cachexia had been treated
Symptoms of cachexia ([2]; Example 21: glioblastoma, 1 mg subcutaneous every second day for one month, two days after commencement): cachexia started to diminish
Symptoms of cachexia ([2]; Example 22: glioblastoma, 1 mg subcutaneous every second day, after 24 hours): symptoms of cachexia had been alleviated
Symptoms of cachexia ([2]; Example 23: Hodgkin's lymphoma, 1 mg subcutaneous every second day for one month, after three weeks): symptoms of cachexia were alleviated
Weight gained ([2]; Example 24: colon cancer, 1 mg subcutaneous every second day): ~5 kg
Symptoms of cachexia ([2]; Example 24: colon cancer, 1 mg subcutaneous every second day, after two weeks): symptoms of cachexia were alleviated
Symptoms of cachexia ([2]; Example 25: non-Hodgkin's lymphoma, 1 mg subcutaneous every second day, after 4 days): symptoms of cachexia were alleviated
Symptoms of cachexia ([2]; Example 26: pancreatic cancer, 1 mg subcutaneous every second day, after 7 days): symptoms of cachexia were alleviated
Symptoms of cachexia ([2]; Example 27: liposarcoma, 1 mg subcutaneous every second day, after 3 days): symptoms of cachexia were alleviated
Symptoms of cachexia ([2]; Example 28: liver cancer, 1 mg subcutaneous every second day, after one week): symptoms of cachexia were largely alleviated
half-life [3]: 18.1 h
IL-1α-induced IL-8 production ([4]; peptide 500 ng/ml, IL-1α alone 67.455±0.125, n=6, p<0.01): 40.705±2.56 ng/ml per 106 cells
Effect on IL-1α-induced IL-8 production ([4]; peptide 100 or 500 ng/ml, FIG. 1): reduced IL-1α-induced IL-8 production in a concentration dependent manner
Period without inflammation post-administration ([5]; Case 1): observed for 48 hours
Period of minimal pain and no heat post-administration ([5]; Case 2): 48 hours post-
Observations ([5]; Case 2: severe pain and heat in near fore hoof, 1 mg bolus intravenous): Minimal pain and no
Observations ([5]; Case 3: years of mild laminitis, 1 mg bolus intravenous every 3rd day for three weeks, during period of treatment): Complete relief of all
Time post-administration at which symptoms returned ([5]; Case 4): after 8 days. 10 days
Observations ([5]; Case 4: near fore fetlock heat and pain, fluid build up in lower deep flexor tendon, 1 mg bolus intravenous, after 8 days): Fetlock completely
Period with no pain or palpation ([5]; Case 5): observed for 14 days.
Period of complete pain relief and increased flexion ([5]; Case 6): observed for 6 days.
Observations ([5]; Case 6: four years of general knee joint pain, sodium hyaluranate (Synvisc) intra-articularly followed by 0.5 mg peptide 4): Complete pain relief
Observations ([5]; Case 7: three years of general knee pain, sodium hyaluranate (Synvisc) intra-articularly followed by 0.5 mg peptide 4, no follow up treatment required): Complete pain relief
Period of pronounced relief of symptoms ([5]; Case 8): over a 72 hour period.
Observations ([5]; Case 9: severe muscle/ligament tear between shoulder and rib cage, 1 mg bolus intravenous, within 24 hours): Symptoms reduced
Observations ([5]; Case 10: chronic joint pain in both knees and fetlocks, sodium hyaluranate (Synvisc) intra-articularly followed by 0.5 mg peptide 4, within 24 hours post-treatment): Significant pain relief,
Observations ([5]; Case 11: mild work-related shin soreness, 1 mg bolus intravenous every 3rd day for a week, after the second injection): Significant improvement
Observations ([5]; Case 12: mild work-related shin soreness, 1 mg bolus intravenous, after 24 hours post-administration): Significant pain relief
Observations ([5]; Case 13: severe pain from inflammation and fluid build-up at 18 month old tendon injury, 1 mg weekly bolus intravenous): Complete relief of pain,

— patent publication US20170022258A1, “PEPTIDES FOR USE IN THE TREATMENT OF IL-1 RELATED DISEASES AND CONDITIONS” (C4M PHARMACEUTICALS PTY LTD., priority 2011, published 2017)
